Experimental data reported in patent US10328051B2, “Proline or proline derivatives for the treatment of dementia” (priority 2014, dated 2019).
“Also recorded” adds a separate entry of the source.

Assays:
Format in all cases: in vivo, human
hepatic fibrosis = assay: Phase II clinical study IPSS-B025: anti-fibrotic efficacy in chronic liver diseases
Source text: (§1) Title: Phase II—CHP in patients with chronic viral hepatitis, chronic alcohol liver diseases without cirrhosis or primary sclerosing cholangitis 45 patients—Study IPSS-B025 (Example 12.4).

[1] = system: patients suffering from cancer, chronic liver diseases (liver fibrosis) and mild Alzheimer's disease/dementia; assay: Phase II clinical studies (Example 12.1-12.4): safety, toxicity (CTC), Quality of Life, immune functions
Source text: According to the example No. 12 in this invention, the safety, efficacy and Quality of Life (QoL) of CHP as monotherapy have been investigated in patients suffering from cancer, chronic liver diseases (liver fibrosis) and mild Alzheimer's disease/dementia The following four (4) ICH-GCP
Title: Phase II—CHP as antitumour agent in patients with resected colorectal cancer and liver metastasis; 60 patients—Study IPSS-A04 (Example 12.1).
Title: Phase II—CHP in patients with locally advanced or metastatic pancreatic cancer—14 patients Study IPSS B013 (Example 12.2).
Title: Evaluation of safety and efficacy of CHP in patients with urogenital Cancer—25 patients—Study IPSS-D002 (Example 12.3).
as §1
According to the examples in this invention, the objectives of these studies were: • Assessment the efficacy and safety of CHP as monotherapy have been investigated in patients suffering from cancer, chronic liver diseases (liver fibrosis) and mild Alzheimer's disease/dementia.
The following validated evaluation systems have been used: • 1. Evaluation of Quality of Life as measured by the FACT questionnaires. • 2. Evaluation of the toxicity and safety of CHP treatment as measured by the Common Toxicity Criteria CTC. • Subjective assessments mild Alzheimer' patients: Overall physical conditions, Cognitive conditions, Quality of Life (QoL)
According to the study protocols for the performance of these studies, oral and intravenous CHP as monotherapy have been administered to the patients at high doses e.g. 8 gram/day for approximately 180 consecutive days. A number of patients have received the medication for approximately 18 months as mono therapy.

[2] = Pre-dose endogenous plasma concentrations of CHP and THP in healthy volunteers (Study 0202-71), HPLC; details: healthy subjects
Protocol: Example 8—Study Title: Determination of Pre-Dose Endogenous Concentrations of CHP in Healthy Volunteers (Study 0202 71) (FIG. 11)
According to the examples in this invention, the following ICH-GCP Clinical Phase I study has been performed in healthy subjects for the assessment of the pharmacokinetic profiles of CHP and THP and the determination of the pre-dose endogenous CHP blood plasma concentrations, which were measured for all healthy volunteers directly before CHP administration using a validated, sensitive and selective HPLC bioanalytical method.
Example 9—Study Title: Determination of Pre-Dose Endogenous Concentrations of THP in Healthy Volunteers (Study 0202 71)—(FIG. 11)
According to the examples in this invention, the following ICH-GCP Clinical Phase I study has been performed in healthy volunteers for the assessment of the pharmacokinetic profiles of THP and to determine the pre-dose endogenous THP plasma concentrations, which were measured for all healthy volunteers directly before CHP administration using a validated, sensitive and selective HPLC bioanalytical method. This was performed before both CHP administrations (i.e. for 2.0 g and 3.0 g). • The mean endogenous THP concentration in healthy subjects, calculated across all dose groups, was 0.97±1.15 μg CHP/ml of plasma.

[3] = system: Alpha Glutathione S-Transferase (α-GST); assay: Measurement of α-Glutathione-S-Transferase following multiple dose administration of CHP (Study 0202-71); details: healthy volunteers
Source text: Example 6—Measurement of α-Glutathione-S-Transferase Following Multiple Dose Administration of CHP (Study 0202-71)—(FIG. 7)
Study title: Measurement of α-Glutathione-S-Transferase following multiple dose administration of CHP (Study 0202-71)
12 healthy Caucasian males were recruited (age: 18-45 years). Multiple doses of CHP were orally administered: • 4×2.0 g CHP per day, for 14 consecutive days (total daily dose=8.0 g CHP) • 4×3.0 g CHP per day, for 14 consecutive days (total daily dose=12.0 g CHP)
To determine the effect of CHP on the blood concentration of Alpha Glutathione S-Transferase (α-GST) following the administration of: • 4×2.0 g CHP per day, for 14 consecutive days (total daily dose=8.0 g CHP) • 4×3.0 g CHP per day, for 14 consecutive days (total daily dose=12.0 g CHP)
The P-value obtained was 0.0017, indicating a 99.8% that the decreased observed was not the result of chance. A one-sample two-sided t-test was used, using the data from day 0-day 17.

[4] = system: patients with advanced cancer disease; assay: Efficacy, safety and Quality of Life of 25 clinical cases with advanced cancer treated with oral and intravenous CHP
Source text: Example 11—Study Title: Evaluation of the Efficacy, Safety and Quality of Life (QoL) of 25 Clinical Cases in Patients with Advanced Cancer Disease Treated with Oral and Intravenous Formulations of Cis-4-Hydroxy-L-Proline (CHP)
25 patients (15 female and 10 male) have been treated with oral and/or intravenous CHP: • Mean age was over 60 years with maximum of 82 and minimum of 36 years. • 15 Patients considered as “elderly patients”—60-82 years (60%) • Patients 50-60 years (20%) • No further demographic data were documented. • Complete clinical case documents have been prepared for each patient.

## O=C(O)[C@@H]1C[C@H](O)CN1 [CHP, cis-4-hydroxy-L-proline]
Hepatic fibrosis
  Anti-fibrotic efficacy in patients suffering from chronic liver diseases: inhibited the hepatic fibrosis; also recorded: antifibrotic efficacy; also recorded: anti-fibrotic efficacy; also recorded: anti-fibrotic activities
[1]; Examples 12.1-12.4
  Immunological activities: increase of the immunological activities of interleukin-2, Interleukin-12, and Interferon-alpha
[1]; Phase II clinical studies
  Patients' Quality of Life (QoL questionnaires): improved drastically
  Toxicity and safety as measured by the Common Toxicity Criteria CTC: has not cause any nephrotoxicity, neurotoxicity, hepatotoxicity, cardiotoxicity and/or laboratory abnormalities
[1]; Phase II clinical studies, CHP monotherapy
  Side effects observed: Only mild side effects such as nausea and/or vomiting
[1]; all clinical studies, mostly patients over 60 years, e.g. 8 gram/day for approximately 180 consecutive days, oral and intravenous monotherapy
  Tolerability: excellent tolerability
[1]; mostly elderly patients
  Drug-drug interactions on co-administration with drugs used by the patients: no drug-drug interactions have been observed
[2]; Study 0202-71
  Average Cmax, molar equivalent in blood: 462.2±212.1 μM CHP/ml blood
[2]; Study 0202-71, after CHP administration
  Average Cmax: 30.29±13.91 μg CHP/ml plasma
[3]; multiple oral doses of CHP for 14 days
  Liver cell damage: no effect of liver cell damage
[3]; oral 4×2.0 g or 4×3.0 g CHP per day for 14 days, P-value 0.0017, one-sample two-sided t-test, day 0-day 17
  α-GST levels in blood: inhibits significantly; also recorded: highly significant
[4]; 1-13 month, 2-22 gram/day CHP as monotherapy, 25 patients
  Tolerability of long-term treatment: well tolerated
[4]; 25 patients with advanced cancer, CHP monotherapy
  Toxic side effects, adverse events: No adverse events or side effects occurred were clinically relevant; also recorded: no toxic side effects or serious adverse events
[4]; advanced cancer patients treated with CHP
  Healing: In one case healing was achieved
[4]; advanced cancer, no progression, no ascites, no obstruction
  Course of disease in most of the patients: quite long time of stable disease
